Values quoted from earlier work, collected in US20190029235A1, “EFFICIENT, SCALABLE PATIENT-DERIVED XENOGRAFT SYSTEM BASED ON A CHICK CHORIOALLANTOIC MEMBRANE (CAM) IN VIVO MODEL” (Baylor College of Medicine, priority 2015, published 2019).

Legend:
[1] = system: BCM-6257 breast cancer PDX line; conditions: PDX line BCM-6257, tumor source Pre-treat Bx, mouse-based breast cancer PDX
[2] = system: BCM-4013 breast cancer PDX line; conditions: PDX line BCM-4013, tumor source Pre-treat Bx, mouse-based breast cancer PDX
[3] = system: BCM-2147 breast cancer PDX line; conditions: PDX line BCM-2147, tumor source Pre-treat Bx, mouse-based breast cancer PDX

Structure (SMILES) | Treatment Response [1] | Treatment Response [2] | Treatment Response [3]
N.N.O=C([O-])C1(C(=O)[O-])CCC1.[Pt+2] [Carboplatin, carboplatin] | Sensitive | Resistant | Sensitive
CC(=O)O[C@@]12CO[C@@H]1C[C@H](O)[C@@]1(C)C(=O)[C@H](O)C3=C(C)[C@@H](OC(=O)[C@H](O)[C@@H](NC(=O)OC(C)(C)C)c4ccccc4)C[C@@](O)([C@@H](OC(=O)c4ccccc4)[C@H]21)C3(C)C [Docetaxel, docetaxel] | Sensitive | Resistant | Resistant
COc1cccc2c1C(=O)c1c(O)c3c(c(O)c1C2=O)C[C@@](O)(C(=O)CO)C[C@@H]3O[C@H]1C[C@H](N)[C@H](O)[C@H](C)O1 [Doxorubicin, doxorubicin] | Resistant | Resistant | Resistant
